Where two headings read alike, the source gives them in different places.
Legend:
[1] = tested on: subgenomic HCV genotype 1 (con 1) replicon; assay: Antiviral activity, subgenomic HCV replicon luciferase test in Huh-7 cells; assay type: cell-based, hepatitis C virus
Description: Studies on inhibition of HCV replication, using human liver cancer cell line (Huh7) carrying a subgenomic HCV replicon of genotype 1 (con1) with a reporter/selection fusion protein luc-ubi-neo, were also carried out.
In order to examine antiviral activity and to determine therapeutic index of exemplary anthracycline antibiotics, subgenomic replicon of hepatitis C virus was used, which is a modified genome of HCV lacking structural genes. The replicon was a non-infective form of the virus, and therefore is safe to work with and makes it easier for high-throughput screening of potential inhibitors of its replication.
Additional simplification was the use of reporter protein—luciferase, whose activity (i.e., luminescence generated by it after addition of substrate) was proportional to the amount of the protein expressed, which allowed determination of HCV RNA replication level and its inhibition by virus replication inhibitors.
The human hepatoma cell line Huh-7 and the plasmid pFK-luc-ubi-neo/NS3-3′/Con1/5.1 carrying the subgenomic HCV genotype 1 (con 1) replicon with the luc-ubi-neo reporter/selective fusion protein (Vrolijk J. M. et al., J. Virol. Methods 110: 201-209, 2003), used in the experiments, were provided by Dr. Ralf Bartenschlager (Department of Molecular Virology, University of Heidelberg, Heidelberg). Huh-7 clones carrying persistently-replicating subgenomic HCV replicons were obtained using the following modification of the protocol described by Lohman V. et al. (J. Virol. 75:1437-1449, 2001).
(§1) Huh-7 cells were grown in minimal essential medium (Dulbecco's Modified Minimal Essential Medium, DMEM; Invitrogen) with high glucose concentration (4.5 g/L) supplemented with 2 mM L-glutamine and 1 μM non-essential amino acids, such as: glycine, L-alanine, L-asparagine, L-aspartic acid, L-glutamic acid, L-proline and L-serine, and also with 100 U/mL penicilin, 100 μg/mL streptomycin, and 10% fetal bovine serum (FBS, Sigma). In cultures of cells bearing the subgenomic HCV replicon 250 μg/mL of aminoglycoside antibiotics G418 (Geneticin; Invitrogen) was added to the medium. Cells were grown at 37° C. (5% CO2) and were passaged twice per week, diluted 7 to 10 times, according to the protocol described in Vrolijk J. M. et al., J. Virol. Methods 110:201-209, 2003.
(§2) The Huh-7 cells carrying replicons were cultivated with the following concentrations of anthracycline antibiotics: 5 to 200 nM for 4 days to determine their influence on HCV RNA replication and 5 to 5000 nM for 3 days to determine cytotoxicity. The medium with 1% DMSO was used as a control.
Conditions of the antiviral activity test of antracycline antibiotics were based on the protocol described by Paeshuyse J. et al. (Biochem. Biophys. Res. Commun. 348: 139-144, 2006). A logarithmic culture of HCV replicon-carrying cells was diluted in complete DMEM medium supplemented with 250 μg/ml G418 to the concentration of 5-7×10^3 cells per mL and aliquoted into 96-well white microtitration plate with optical bottom (Nunc) (100 μL per well). After 24 h at 37° C. the medium was removed and dilution of inhibitors in the range of 5 to 200 nM was added in 100 μL of fresh DMEM medium without G418. Huh-7 cells with 1% DMSO were used as a control. After 4 days at 37° C., the medium was removed and 40 μL of mixture of Glo Lysis buffer and Bright-Glo luciferase assay system (Promega) was added to each well. After 2 mins of incubation luminescence was measured with a Synergy HTi (Biotek) device. The experiment was repeated at least three times with three repetitions for each inhibitor concentration.

helicase = settings: Borowski P. et al., Antiviral Res. 55, 397-412, 2002; read-out: IC50 (antihelicase activity); cited from earlier work
[2] = Cytotoxicity (MTT) in HCV replicon-carrying Huh-7 cells; settings: human, Huh-7 cells carrying subgenomic HCV replicon
Description: as §1, §2
(§3) When determining cytotoxicity, as in the antiviral test, logarithmic culture of HCV replicon-carrying cells was diluted in complete DMEM medium supplemented with 250 μg/mL G418 to the concentration of 5−7×10^3 cells per mL and aliquoted into 96-well mictotitration cell culture plate (100 μL per well). After 24 h at 37° C. medium was removed and inhibitors were added at concentrations of 5 to 5000 nM in 100 μL of fresh DMEM medium without G418. After 3 days at 37° C., the medium was removed and 100 μL of fresh DMEM medium with 0.5 mg/mL of MTT (tetrazolium bromide, Sigma) was added to each well. After 3 to 4 hours of incubation at 37° C., the medium with MTT was removed and 100 μL of 0.04 N HCl solution in absolute isopropanol was added to solubilize the precipitated dye. Dye absorbance was measured at 570 nm, while absorbance of the background was measured at 650 nm using Synergy HTi (Biotek). The experiment was repeated at least 3 times with 3 repetitions for each inhibitor concentration.

[3] = tested on: Huh-7 cells carrying replicons; assay: as above; settings: Huh-7 replicon cells, 3 days, MTT, cell growth inhibited by 50%
Description: as §1, §2, §3

[4] = molecular target: T1, HCV helicase (helicase domain of NS3 protein) (UniProt P27958); assay: Fluorometric (FRET) antihelicase activity assay; assay type: biochemical, hepatitis C virus (HCV); settings: concentration inhibiting 50% of helicase activity; 10 nM enzyme pre-incubated 15 min with derivative, unwinding at 30° C. for 60 min; read-out: IC50
T1 construct: The helicase domain of NS3 protein was expressed in a baculovirus system in HF insect cell line; fused on or other part: Histidine tag, inferred from the Talon cobalt column purification ('histidine repetitions')
Excerpt: A reaction takes place on a 96- or 384-well microtitration plate and a course of the reaction is observed in real time.
The helicase domain of NS3 protein was expressed in a baculovirus system in HF insect cell line.
In this assay, FAM fluorescence is quenched by fluorescence energy transfer (FRET) to the BHQ molecule, while unwinding of double-stranded DNA structure leads to decrease of FRET phenomenon and increase of FAM fluorescence signal. The assay allows for examining a large number of samples, i.e., different helicase inhibitors at various concentrations and with many repetitions, in standardized conditions. The reaction is conducted in a microtitration plate. The reaction process is observed in real time.
The enzyme (10 nM) was pre-incubated with the tested derivatives dissolved in DMSO (0.005 to 20 μM concentration) without ATP for 15 min at room temperature. The reaction of DNA unwinding was started by addition of ATP and was carried out at 30° C. for 60 min in a Synergy HTi (Biotek) fluorometer. […] Fluorescence was measured every 2 mins.
The enzyme activity was calculated as the initial reaction velocity from the linear part of reaction curve (fluorescence growth as a function of time) using a linear regression method. Inhibition was calculated as comparison of activity of the helicase incubated with inhibitor to activity of the helicase incubated without inhibitor, but with a proper concentration of DMSO, expressed in percent.

[5] = Hepatitis C virus, Huh-7, 96 h, Huh-7 replicon cells, 4 days, luminescence reduced by 50%
[6] = Huh-7 replicon cells, 4 days, luminescence reduced by 50%, read-out: EC50

T1 sequence (P27958 1027-1657): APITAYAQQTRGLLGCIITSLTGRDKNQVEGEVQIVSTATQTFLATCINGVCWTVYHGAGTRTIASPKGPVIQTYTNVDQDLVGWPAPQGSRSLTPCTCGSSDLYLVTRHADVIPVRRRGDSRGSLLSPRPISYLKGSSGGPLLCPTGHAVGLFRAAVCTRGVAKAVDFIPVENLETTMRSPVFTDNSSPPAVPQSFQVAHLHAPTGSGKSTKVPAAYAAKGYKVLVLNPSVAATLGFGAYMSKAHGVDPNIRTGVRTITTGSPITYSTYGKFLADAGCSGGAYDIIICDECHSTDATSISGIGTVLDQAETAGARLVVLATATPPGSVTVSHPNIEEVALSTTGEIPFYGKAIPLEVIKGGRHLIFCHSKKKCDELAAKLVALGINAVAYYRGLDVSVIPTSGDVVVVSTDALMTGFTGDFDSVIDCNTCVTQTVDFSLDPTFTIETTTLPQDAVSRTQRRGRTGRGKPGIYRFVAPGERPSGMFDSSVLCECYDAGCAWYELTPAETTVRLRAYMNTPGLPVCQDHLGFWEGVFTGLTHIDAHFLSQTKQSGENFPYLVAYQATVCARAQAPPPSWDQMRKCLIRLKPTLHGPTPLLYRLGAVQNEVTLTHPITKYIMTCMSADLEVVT

COc1cccc2c1C(=O)c1c(O)c3c(c(O)c1C2=O)C[C@@](O)(C(=O)CO)C[C@@H]3O[C@H]1C[C@H](N)[C@H](O)[C@H](C)O1 [Doxorubicin, reference compound]
EC50 [1, 5]: 31.2 nM
EC50 ([1]; Huh-7 replicon cells, 4 days, luminescence reduced by 50%): 42.9 nM
IC50 (helicase): 5000 nM
CC50 at 3 days [2]: 332 nM

O=C1c2c(O)ccc(O)c2C(=O)c2c(NCCNCCO)ccc(NCCNCCO)c21 [mitoxantrone]
IC50 (helicase): 6700 nM

COc1cccc2c1C(=O)c1c(O)c3c(c(O)c1C2=O)CC(O)(C(=O)CO)CC3OC1CC(N=C(C)N2CCOCC2)C(O)C(C)O1 (stereo not drawn) [Derivative 54]
EC50 [1, 6]: 129 nM
CC50 [3]: 4280 nM
IC50 [4]: 510 nM

NC(=O)c1ncn([C@@H]2O[C@H](CO)[C@@H](O)[C@H]2O)n1 [ribavirin, reference compound]
EC50 ([1]; Hepatitis C virus, Huh-7, ribavirin, comparison drug): 120000 nM

COc1cccc2c1C(=O)c1c(O)c3c(c(O)c1C2=O)C[C@@](O)(C(C)=O)C[C@@H]3O[C@H]1C[C@H](N)[C@@H](O)[C@H](C)O1 [Epidaunorubicin, reference compound]
EC50 [1, 6]: 31.2 nM
IC50 [4]: 3730 nM

COc1cccc2c1C(=O)c1c(O)c3c(c(O)c1C2=O)C[C@@](O)(C(C)=O)C[C@@H]3O[C@H]1C[C@H](N)[C@H](O)[C@H](C)O1 [Daunorubicin, reference compound]
EC50 [1, 5]: 31.2 nM
IC50 (helicase): 57000 nM
IC50 [4]: 6050 nM

COc1cccc2c1C(=O)c1c(O)c3c(c(O)c1C2=O)CC(O)(C(=O)CO)CC3OC1CC(N=C(C)N2CCc3ccccc32)C(O)C(C)O1 (stereo not drawn) [Derivative 133]
EC50 [1, 6]: 138 nM
CC50 [3]: 1570 nM
IC50 [4]: 380 nM

COC(=O)[C@@H]1c2cc3c(c(O)c2[C@@H](O[C@@H]2O[C@@H](C)[C@H](OC)[C@@](C)(OC)[C@H]2OC)C[C@]1(C)O)C(=O)c1c(O)cc2c(c1C3=O)O[C@@H]1O[C@@]2(C)[C@H](O)[C@@H](N(C)C)[C@@H]1O [nogalamycin]
IC50 (helicase): 100 nM

COc1cccc2c1C(=O)c1c(O)c3c(c(O)c1C2=O)C[C@@](O)(C(=O)CO)C[C@@H]3O[C@H]1C[C@H](N)[C@@H](O)[C@H](C)O1 [Epidoxorubicin, reference compound]
IC50 (helicase): 750 nM
CC50 at 3 days [2]: 675 nM

COc1cccc2c1C(=O)c1c(O)c3c(c(O)c1C2=O)CC(O)(C(C)=O)CC3OC1CC(N=C(C)N2CCN(C)CC2)C(O)C(C)O1 (stereo not drawn) [Derivative 94]
EC50 [1, 5]: 56.9 nM
CC50 at 3 days [2]: 1090 nM
IC50 [4]: 80 ± 20 nM

COc1cccc2c1C(=O)c1c(O)c3c(c(O)c1C2=O)CC(O)(C(C)=O)CC3OC1CC(N=CN2CCCCCC2)C(O)C(C)O1.Cl (stereo not drawn) [Derivative 75]
activity (EC50) fold higher than that of epidoxorubicin, doxorubicin, epidaunorubicin, or daunorubicin ([1]; HCV replicon): 4 fold
EC50 [1, 6]: 8.4 nM
CC50 [3]: 47.9 nM
IC50 [4]: 2330 nM

COc1cccc2c1C(=O)c1c(O)c3c(c(O)c1C2=O)CC(O)(C(=O)CO)CC3OC1CC(N=C(C)N2CCOCC2)C(O)C(C)O1 (stereo not drawn) [Derivative 125]
EC50 [1, 6]: 114 nM
CC50 [3]: 909 nM
IC50 [4]: 290 nM
